Test results reported in patent US20090318449A1, “THERAPEUTIC LACTAMS” (ALLERGAN, INC., priority 2008, published 2009).

Test system: lashes and adjacent hairs of glaucoma patients
Assay: Eyelash/hair growth observed in glaucoma patients treated in one eye
Format: in vivo, humans
Conditions: glaucoma patients treated in only one eye
From the text: In the course of treating patients having glaucoma, treatment may only be appropriate in one eye. […] The lash appearance on the lids of the treated eyes would have appeared quite attractive if it represented a bilateral phenomenon. As a result of its asymmetric nature, the long lashes on one side could be construed as disturbing from a cosmetic standpoint. A systemic examination was preformed as a result of the asymmetric phenomenon. It soon became apparent that this altered appearance was not an isolated finding. […] Definite differences could be identified to varying degrees in the lashes and adjacent hairs of all patients who were taking the drug on a unilateral basis for longer than 6 months.
The changes in the lashes were apparent on gross inspection in several patients once attention was focused on the issue. In those with light colored hair and lashes, the differences were only seen easily with the aid of the high magnification and lighting capabilities of the slit lamp biomicroscope. In the course of glaucoma follow-up examination, attention is generally immediately focused on the eye itself. As a result of the high power magnification needed only one eye is seen at a time and the eye is seen at a high enough power that the lashes are not in focus. […]

CCNC(=O)CCC/C=C\C[C@@H]1[C@@H](/C=C/[C@@H](O)CCc2ccccc2)[C@H](O)C[C@@H]1O [bimatoprost]
lash appearance, treated eye versus non-treated eye: longer, thicker, and fuller
